Read-outs that look alike come from different tables or passages of the source.
Assays:
gut microbiome = conditions: cited from earlier work
microbial strains = assay: Indirect assay: growth with RebA as the only carbon source and RebA degradation by the soluble fraction of the cell extract; format: cell-based; conditions: defined mineral medium, 10 g/L RebA as only carbon source, 28° C., 72 h; 19 microbial strains
Description: Microbial strains were assayed for their ability to assimilate RebA from the culture medium by growing the strains in a defined mineral medium with RebA as the only carbon source.
This medium contained (per liter): 10 g RebA, 5 g (NH4)2SO4, 3 g KH2PO4, 0.5 g MgSO4×7H2O, 15 mg EDTA, 4.5 mg ZnSO4×7H2O, 0.3 mg CoCl2×6H2O, 1 mg MnCl2×4H2O, 0.3 mg CuSO4×5H2O, 4.5 mg CaCl2×2H2O, 3 mg FeSO4×7H2O, 0.4 mg NaMoO4×2H2O, 1 mg H3BO3, 0.1 mg KI, 0.05 mg biotin, 1 mg calcium pantothenate, 25 mg inositol, 1 mg thiamine HCl, 1 mg pyridoxine HCl, 0.2 mg para-aminobenzoic acid. A volume of 1 mL culture medium was inoculated with 10 μl of an overnight culture grown.
All cultivations were performed in 96 square well plates on a laboratory shaker with 300 rpm and 5.1 cm shaking diameter at 28° C. for 72 h. Growth was monitored by mixing 50 μL or culture volume with 50 μL ethanol in a 96 well plate and subsequently measuring the optical density at 600 nm (OD600) in a spectrophotometer (Molecular Devices). […]
Then, 70 μL of a 2 g/L RebA solution was added to the soluble fraction before incubation at 72 h at 28° C. RebA was detected by LC-MS set to single ion monitoring (SIM) mode, negative mode, m/z=965.60.
The difference in RebA concentration between the start and the end of the incubation was calculated for each soluble fraction. […]

[1] = test system: Kluyveromyces marxianus strain; assay: Direct assay: quantification of intracellular RebA by LC-MS; format: cell-based
Description: The selected microbial strain was cultivated in a defined mineral medium with RebA as the only carbon source. This medium contained (per liter): 9 g RebA, 5 g (NH4)2SO4, 3 g KH2PO4, 0.5 g MgSO4×7H2O, 15 mg EDTA, 4.5 mg ZnSO4×7H2O, 0.3 mg CoCl2×6H2O, 1 mg MnCl2×4H2O, 0.3 mg CuSO4×5H2O, 4.5 mg CaCl2×2H2O, 3 mg FeSO4×7H2O, 0.4 mg NaMoO4×2H2O, 1 mg H3BO3, 0.1 mg KI, 0.05 mg biotin, 1 mg calcium pantothenate, 25 mg inositol, 1 mg thiamine HCl, 1 mg pyridoxine HCl, 0.2 mg para-aminobenzoic acid. A volume of 20 mL culture medium was inoculated with a single colony. All cultivations were performed in 25 mL culture medium in a 300 mL non-baffled shake flask on a laboratory shaker with 250 rpm and 2.5 cm shaking diameter at 28° C. for 72 h. The complete culture was transferred to a beaker containing 125 mL of a solution containing 45 ppm 4-Nitrophenyl β-D-glucopyranoside in 60% methanol in water that was pre-cooled to −40° C. The mixture was then transferred to three 50 mL centrifugation tubes that were pre-cooled on dry ice and centrifuged below 0° C. at 4248 g for 10 min. Subsequently, an aliquot of the supernatant (quench) was stored at −80° C. and the rest of the supernatant was discarded, while the pellet was kept on dry ice. Then 5 mL 60% methanol in water pre-cooled on dry ice was used to re-suspend the 3 pellets. The re-suspended pellets were transferred to a single 15 mL centrifugation tube precooled on dry ice and centrifuged below 0° C. at 4248 g for 10 min. Then the supernatant was discarded and the pellet was re-suspended in fresh 5 mL 60% methanol in water pre-cooled on dry ice and the suspension was centrifuged below 0° C. at 4248 g for 10 min. Then the supernatant was discarded and the pellet was re-suspended again in fresh 5 mL 60% methanol in water pre-cooled on dry ice and the suspension was centrifuged below 0° C. at 4248 g for 10 min. […] The concentration of RebA in quench, wash, and cell extract was quantified by LC-MS (FIG. 2), in which the error bars indicate the standard error of mean from 2 parallel experiments.

SMILES: C=C1C[C@@]23CC[C@H]4[C@@](C)(CCC[C@@]4(C)C(=O)O)[C@@H]2CC[C@]1(O)C3 [steviol]
- degradation by the gut microbiome (gut microbiome; Gardana et al., 2003): not metabolized further

SMILES: C=C1C[C@@]23CC[C@H]4[C@@](C)(CCC[C@@]4(C)C(=O)O[C@@H]4O[C@H](CO)[C@@H](O)[C@H](O)[C@H]4O)[C@@H]2CC[C@]1(O[C@@H]1O[C@H](CO)[C@@H](O)[C@H](O[C@@H]2O[C@H](CO)[C@@H](O)[C@H](O)[C@H]2O)[C@H]1O[C@@H]1O[C@H](CO)[C@@H](O)[C@H](O)[C@H]1O)C3 [RebA, Rebaudioside A]
- assimilation of RebA from the culture medium (microbial strains): found to assimilate RebA
- concentration of RebA in the cell extract versus quench and wash solutions ([1]; 9 g/L RebA as only carbon source, 72 h, LC-MS, FIG. 2, 2 parallel experiments): exceeds that in the quench and wash solutions
- concentration of RebA in the wash solution versus quench solution ([1]; LC-MS, FIG. 2): higher than in the quench solution
- intracellular accumulation of RebA ([1]; conclusion from cell extract versus quench and wash concentrations): accumulated intracellularly
- degradation by the gut microbiome (gut microbiome): glucose residues are cleaved off
